Data as given in ChEMBL document CHEMBL5465560, “Selectivity Literature for EUbOPEN Chemogenomic Library” (2024).

Assays:
[1] = target: T1, Peripheral plasma membrane protein CASK (Homo sapiens) (UniProt O14936); assay: Selectivity interaction (Kinase panel (DSF assay)) EUB0001559a CASK
T1 sequence (whole entry): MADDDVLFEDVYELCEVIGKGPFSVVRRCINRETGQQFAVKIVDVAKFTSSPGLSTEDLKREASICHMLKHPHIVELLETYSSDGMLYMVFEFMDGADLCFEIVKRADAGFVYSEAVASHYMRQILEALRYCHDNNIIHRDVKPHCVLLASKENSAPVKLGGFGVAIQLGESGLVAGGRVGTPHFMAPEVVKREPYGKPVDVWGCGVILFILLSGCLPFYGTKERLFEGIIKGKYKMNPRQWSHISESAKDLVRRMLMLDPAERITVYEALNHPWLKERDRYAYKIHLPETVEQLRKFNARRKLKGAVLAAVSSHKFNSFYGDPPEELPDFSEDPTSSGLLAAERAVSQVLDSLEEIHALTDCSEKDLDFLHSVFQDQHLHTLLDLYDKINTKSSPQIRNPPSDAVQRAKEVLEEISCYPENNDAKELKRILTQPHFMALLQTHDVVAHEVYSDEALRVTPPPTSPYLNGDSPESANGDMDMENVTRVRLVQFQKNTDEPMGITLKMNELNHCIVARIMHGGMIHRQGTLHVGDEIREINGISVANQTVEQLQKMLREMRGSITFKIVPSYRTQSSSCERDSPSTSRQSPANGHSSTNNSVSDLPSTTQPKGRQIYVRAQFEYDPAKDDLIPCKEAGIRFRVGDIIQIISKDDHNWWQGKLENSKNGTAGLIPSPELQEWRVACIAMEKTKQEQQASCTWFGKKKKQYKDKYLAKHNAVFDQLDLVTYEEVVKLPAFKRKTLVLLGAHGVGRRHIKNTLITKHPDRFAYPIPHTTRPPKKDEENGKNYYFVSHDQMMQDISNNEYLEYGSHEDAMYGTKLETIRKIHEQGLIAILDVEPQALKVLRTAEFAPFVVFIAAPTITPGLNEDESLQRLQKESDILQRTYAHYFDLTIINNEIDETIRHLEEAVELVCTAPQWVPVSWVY

[2] = target: T2, Mitogen-activated protein kinase kinase kinase 15 (Homo sapiens) (UniProt Q6ZN16); assay: Selectivity interaction (Kinase panel (KiNativ target engagement assay in Jurkat cells)) EUB0001635a MAP3K15; type: cell-based; settings: at 1 µM
T2 sequence (whole entry): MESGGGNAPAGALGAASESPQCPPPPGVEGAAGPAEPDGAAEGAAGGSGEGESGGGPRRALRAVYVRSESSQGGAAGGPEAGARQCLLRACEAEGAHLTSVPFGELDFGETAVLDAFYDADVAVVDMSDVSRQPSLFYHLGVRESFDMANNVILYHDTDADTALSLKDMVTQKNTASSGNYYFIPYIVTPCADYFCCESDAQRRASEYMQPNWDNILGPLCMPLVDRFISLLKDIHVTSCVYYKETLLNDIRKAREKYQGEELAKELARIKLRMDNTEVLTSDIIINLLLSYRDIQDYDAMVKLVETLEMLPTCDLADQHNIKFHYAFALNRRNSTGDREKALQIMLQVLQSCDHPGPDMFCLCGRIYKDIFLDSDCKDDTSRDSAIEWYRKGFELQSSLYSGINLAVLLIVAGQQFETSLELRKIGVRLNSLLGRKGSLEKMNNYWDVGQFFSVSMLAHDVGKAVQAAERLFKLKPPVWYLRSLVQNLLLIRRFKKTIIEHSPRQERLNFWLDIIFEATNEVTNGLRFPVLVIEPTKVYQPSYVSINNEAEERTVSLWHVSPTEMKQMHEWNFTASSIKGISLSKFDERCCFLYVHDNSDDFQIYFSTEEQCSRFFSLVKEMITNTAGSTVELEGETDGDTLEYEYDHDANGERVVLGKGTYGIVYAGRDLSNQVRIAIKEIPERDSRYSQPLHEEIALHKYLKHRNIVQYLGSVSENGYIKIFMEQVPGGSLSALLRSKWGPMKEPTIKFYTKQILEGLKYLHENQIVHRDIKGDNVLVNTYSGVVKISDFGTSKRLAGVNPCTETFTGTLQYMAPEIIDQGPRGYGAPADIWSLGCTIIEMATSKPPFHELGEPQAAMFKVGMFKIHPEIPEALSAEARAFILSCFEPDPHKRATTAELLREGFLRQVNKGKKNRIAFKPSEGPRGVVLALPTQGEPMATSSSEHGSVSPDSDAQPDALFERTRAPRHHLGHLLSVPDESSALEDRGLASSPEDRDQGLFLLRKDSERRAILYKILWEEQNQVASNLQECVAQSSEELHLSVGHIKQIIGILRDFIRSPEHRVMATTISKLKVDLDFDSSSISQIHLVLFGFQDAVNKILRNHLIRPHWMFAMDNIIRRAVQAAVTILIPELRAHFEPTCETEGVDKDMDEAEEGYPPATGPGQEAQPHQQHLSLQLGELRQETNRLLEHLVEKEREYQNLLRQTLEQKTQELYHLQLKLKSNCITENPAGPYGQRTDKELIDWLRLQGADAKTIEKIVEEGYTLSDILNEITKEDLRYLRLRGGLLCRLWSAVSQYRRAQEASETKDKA

[3] = target: Alpha-1A adrenergic receptor (Homo sapiens, UniProt P35348); assay: Selectivity interaction (Alpha1A calcium flux assay ) EUB0000877a ADRA1A
[4] = target: T3, Myotonin-protein kinase (Homo sapiens) (UniProt Q09013); assay: Selectivity interaction (KinomeScan (DiscoverX)) EUB0000045b DMPK
T3 sequence (whole entry): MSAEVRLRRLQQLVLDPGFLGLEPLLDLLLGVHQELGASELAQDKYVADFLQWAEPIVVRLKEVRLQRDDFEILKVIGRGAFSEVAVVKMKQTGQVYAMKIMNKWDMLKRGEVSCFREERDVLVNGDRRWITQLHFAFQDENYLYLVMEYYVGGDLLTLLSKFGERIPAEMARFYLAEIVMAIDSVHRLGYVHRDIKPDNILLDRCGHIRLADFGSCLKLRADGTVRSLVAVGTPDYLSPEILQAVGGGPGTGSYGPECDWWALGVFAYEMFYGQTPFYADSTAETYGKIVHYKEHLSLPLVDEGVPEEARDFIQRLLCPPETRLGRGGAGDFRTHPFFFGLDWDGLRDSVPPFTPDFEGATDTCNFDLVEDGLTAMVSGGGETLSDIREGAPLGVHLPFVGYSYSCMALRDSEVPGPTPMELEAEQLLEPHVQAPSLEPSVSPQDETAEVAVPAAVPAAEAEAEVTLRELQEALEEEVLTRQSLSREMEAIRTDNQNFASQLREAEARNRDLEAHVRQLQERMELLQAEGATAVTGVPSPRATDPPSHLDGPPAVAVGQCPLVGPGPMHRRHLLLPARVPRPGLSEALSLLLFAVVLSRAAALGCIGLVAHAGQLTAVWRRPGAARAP

[5] = target: Serine/threonine-protein kinase MARK1 (Homo sapiens) (UniProt Q9P0L2); assay: Selectivity interaction (KinomeScan (DiscoverX)) EUB0000618a MARK1; settings: at 10 µM
Sequence of Serine/threonine-protein kinase MARK1 (Homo sapiens) (Q9P0L2 whole entry, looked up): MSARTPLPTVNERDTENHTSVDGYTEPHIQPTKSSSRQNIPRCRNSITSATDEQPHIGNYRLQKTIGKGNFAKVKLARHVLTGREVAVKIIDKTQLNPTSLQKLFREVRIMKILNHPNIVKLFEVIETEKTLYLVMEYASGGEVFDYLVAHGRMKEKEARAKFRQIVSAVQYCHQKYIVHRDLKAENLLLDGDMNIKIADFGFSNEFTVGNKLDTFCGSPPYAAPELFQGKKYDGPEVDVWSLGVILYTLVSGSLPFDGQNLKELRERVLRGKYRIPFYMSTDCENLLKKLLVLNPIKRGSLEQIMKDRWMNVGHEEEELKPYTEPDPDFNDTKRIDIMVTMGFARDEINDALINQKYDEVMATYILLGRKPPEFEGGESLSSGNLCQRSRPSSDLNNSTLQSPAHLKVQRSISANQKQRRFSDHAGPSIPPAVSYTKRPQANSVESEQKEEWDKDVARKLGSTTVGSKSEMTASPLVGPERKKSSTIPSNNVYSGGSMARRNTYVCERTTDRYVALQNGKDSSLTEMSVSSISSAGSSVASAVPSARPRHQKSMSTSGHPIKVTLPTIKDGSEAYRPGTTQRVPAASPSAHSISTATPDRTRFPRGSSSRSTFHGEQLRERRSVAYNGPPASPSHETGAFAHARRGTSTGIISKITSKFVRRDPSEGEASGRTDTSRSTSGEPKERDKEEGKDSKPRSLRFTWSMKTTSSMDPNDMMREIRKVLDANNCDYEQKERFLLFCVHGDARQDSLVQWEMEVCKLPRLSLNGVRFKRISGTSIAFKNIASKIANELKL

Sequence of Alpha-1A adrenergic receptor (P35348 whole entry): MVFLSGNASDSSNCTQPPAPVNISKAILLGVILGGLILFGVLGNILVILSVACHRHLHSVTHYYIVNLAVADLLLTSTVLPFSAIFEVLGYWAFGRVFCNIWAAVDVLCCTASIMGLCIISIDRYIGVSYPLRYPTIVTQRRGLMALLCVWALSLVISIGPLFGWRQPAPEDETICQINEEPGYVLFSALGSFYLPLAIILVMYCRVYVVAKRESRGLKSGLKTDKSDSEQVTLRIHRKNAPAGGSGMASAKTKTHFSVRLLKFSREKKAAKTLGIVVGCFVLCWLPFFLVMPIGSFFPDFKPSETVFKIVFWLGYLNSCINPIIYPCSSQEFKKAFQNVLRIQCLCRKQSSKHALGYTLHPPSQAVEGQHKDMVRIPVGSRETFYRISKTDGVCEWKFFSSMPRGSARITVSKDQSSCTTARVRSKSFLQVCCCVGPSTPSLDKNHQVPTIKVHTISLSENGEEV

Work on `CN(C(=O)c1cnn2cccnc12)c1cc2c(cc1N1CCOCC1)C(=O)N(C[C@@H](F)C(C)(C)O)C2` yielded a dTM [1] of 0 K.
Compound `C=CC(=O)Nc1ccc(C(=O)Nc2[nH]nc3c2CN(C(=O)N[C@H](CN(C)C)c2ccccc2)C3(C)C)cc1` has a % of engagement [2] of 4.9%.
Work on `CCC(=O)N1CC[C@H](Nc2ncnc3c2CN(c2cnc(OC)c(C(F)(F)F)c2)CC3)C1` [LENIOLISIB] yielded an IC50 [3] greater than 30 µM.
With `C=CC(=O)Nc1cc(-n2c(=O)ccc3cnc4ccc(-c5ccc(NS(C)(=O)=O)cc5)cc4c32)ccc1C` the % of control ([4]; at 1 µM) was 91% and the % of control ([4]; at 10 µM) was 100%.
`O[C@H]1CC[C@H](Nc2ncc3nc(Nc4c(F)cc(F)cc4F)n([C@H]4CCOC4)c3n2)CC1` showed a % of control [5] of 100%.
